US9006487B2, “Amine-containing lipids and uses thereof” (Massachusetts Institute of Technology, priority 2005, dated 2015)

Tested on: cos-7 cells
Test: DNA transfection: luciferase expression relative to Lipofectamine 2000
Assay type: cell-based
Settings: 300 ng Luciferase DNA per well, luciferase assay after 48 hours
Protocol: 14,000 cos-7 cells (ATCC, Manassas, Va.) were seeded into each well of a solid white or clear 96 well plate (Corning-Costar, Kennebunk, Me.) and allowed to attached overnight in growth medium, composed of: 500 ml phenol red minus DMEM, 50 ml heat inactivated FBS, 5 ml penicillin/streptomycin (Invitrogen, Carlsbad, Calif.).
A small liquot of lipid was tranferred to an Eppendorf tube. Based on the mass of the lipid in the tube, sterile 25 mM sodium acetate buffer was added to each tube to yield a concentration of 60 mg/ml. The resulting mixture was vortexed for approximately 20 minutes until the lipid was fully dissolved. DNA was prepared based on 300 ng DNA per well of a 96-well plate. 291 μg of Lc DNA was dissolved in 9210 μl of 25 mM sodium acetate buffer. Aliquots of 30 μl of DNA solution were added to each well expect for the last column which was reserved for the Lipo2000 standard. For the last column of the plate, 61 μg of DNA was added to 1940 μl Optimem. 150 μl of media/Optimem was added to each well of plates. 50 μl of lipid solution was aliquoted into wells of robot plate. The following amounts were aliquoted to obtain the correct ratios of DNA to lipid:
In quadruplicate, 30 μl of lipid was aliquoted onto DNA in four rows for each ratio. For the Lipo2000 control (2.5 w/w ratio to DNA), 152.5 μg of Lipo sample was aliquoted into 1847.5 μl of Optimem. 30 μl of this solution was aliquoted onto DNA in the Optimem in the last columns of each plate. The plates were incubated for 15-20 minutes, and then 36.5 μl of lipid+DNA complexes was transferred into 150 μl of media/Optimem, then add to cells. The media was aspirated off the cells, and 105 μl of the lipid/DNA/media/Optimem solution was added to the cells. The luciferase assay was performed after 48 hours.
Luminescence was analyzed using bright-glo assay kits (Promega). Briefly, 100 μl of bright-glo solution was added to each well of the microtiter plate containing media and cells. Luminescence was measured using a Mithras Luminometer (Berthold, Oak Ridge, Tenn.). In some cases, a neutral density filter (Chroma, Brattleboro, Vt.) was used to prevent saturation of the luminometer. A standard curve for Luciferase was generated by titration of Luciferase enzyme (Promega) into growth media in white microtiter plates. Luciferase in ng per well are calculated for each of the lipids at 2.5 w/w, 5 w/w, 10 w/w, 15 w/w, 20 w/w, and 25 w/w lipid to DNA based on the standard curve.
The table below summarizes the data as a % of the luciferase activity obtained from the use of Lipofectamine 2000. The table indicates the best lipids for transfection.

## CCCCCCCCCCCCOC(=O)CCN(CCC(=O)OCCCCCCCCCCCC)CCc1c[nH]cn1 [LD94]
lipid/DNA 2.5 w/w
  Luciferase expression as a percentage of that achieved using Lipofectamine 2000: 1.5%
lipid/DNA 5 w/w
  Luciferase expression as a percentage of that achieved using Lipofectamine 2000: 5.9%
lipid/DNA 10 w/w
  Luciferase expression as a percentage of that achieved using Lipofectamine 2000: 2.0%
lipid/DNA 15 w/w
  Luciferase expression as a percentage of that achieved using Lipofectamine 2000: 8.5%
lipid/DNA 20 w/w
  Luciferase expression as a percentage of that achieved using Lipofectamine 2000: 9.2%
lipid/DNA 25 w/w
  Luciferase expression as a percentage of that achieved using Lipofectamine 2000: 7.3%

## CCCCCCCCCCOC(=O)CCN(CCCN(CC)CC)CCC(=O)OCCCCCCCCCC [LB81]
lipid/DNA 2.5 w/w
  Luciferase expression as a percentage of that achieved using Lipofectamine 2000: 0.4%
lipid/DNA 5 w/w
  Luciferase expression as a percentage of that achieved using Lipofectamine 2000: 0.4%
lipid/DNA 10 w/w
  Luciferase expression as a percentage of that achieved using Lipofectamine 2000: 0.2%
lipid/DNA 15 w/w
  Luciferase expression as a percentage of that achieved using Lipofectamine 2000: 0.3%
lipid/DNA 20 w/w
  Luciferase expression as a percentage of that achieved using Lipofectamine 2000: 0.4%
lipid/DNA 25 w/w
  Luciferase expression as a percentage of that achieved using Lipofectamine 2000: 0.5%

## CCCCCCCCCCCCCCOC(=O)CCN(CCCCCO)CCC(=O)OCCCCCCCCCCCCCC [LF32]
lipid/DNA 2.5 w/w
  Luciferase expression as a percentage of that achieved using Lipofectamine 2000: 0.1%
lipid/DNA 5 w/w
  Luciferase expression as a percentage of that achieved using Lipofectamine 2000: 0.1%
lipid/DNA 10 w/w
  Luciferase expression as a percentage of that achieved using Lipofectamine 2000: 0.2%
lipid/DNA 15 w/w
  Luciferase expression as a percentage of that achieved using Lipofectamine 2000: 0.1%
lipid/DNA 20 w/w
  Luciferase expression as a percentage of that achieved using Lipofectamine 2000: 0.4%
lipid/DNA 25 w/w
  Luciferase expression as a percentage of that achieved using Lipofectamine 2000: 0.4%

## CCCCCCCCCCOC(=O)CCN(CCC(=O)OCCCCCCCCCC)C[C@H](C)O [LB22]
lipid/DNA 2.5 w/w
  Luciferase expression as a percentage of that achieved using Lipofectamine 2000: 0.3%
lipid/DNA 5 w/w
  Luciferase expression as a percentage of that achieved using Lipofectamine 2000: 0.3%
lipid/DNA 10 w/w
  Luciferase expression as a percentage of that achieved using Lipofectamine 2000: 0.4%
lipid/DNA 15 w/w
  Luciferase expression as a percentage of that achieved using Lipofectamine 2000: 0.4%
lipid/DNA 20 w/w
  Luciferase expression as a percentage of that achieved using Lipofectamine 2000: 0.4%
lipid/DNA 25 w/w
  Luciferase expression as a percentage of that achieved using Lipofectamine 2000: 0.4%

## CCCCCCCCCCCCCCOC(=O)CCN(CCC(=O)OCCCCCCCCCCCCCC)C(CO)CO [LF25]
lipid/DNA 2.5 w/w
  Luciferase expression as a percentage of that achieved using Lipofectamine 2000: 0.1%
lipid/DNA 5 w/w
  Luciferase expression as a percentage of that achieved using Lipofectamine 2000: 0.2%
lipid/DNA 10 w/w
  Luciferase expression as a percentage of that achieved using Lipofectamine 2000: 0.3%
lipid/DNA 15 w/w
  Luciferase expression as a percentage of that achieved using Lipofectamine 2000: 0.4%
lipid/DNA 20 w/w
  Luciferase expression as a percentage of that achieved using Lipofectamine 2000: 0.9%
lipid/DNA 25 w/w
  Luciferase expression as a percentage of that achieved using Lipofectamine 2000: 1.5%

## CCCCCCCCCCCCCCCOC(=O)CCN(CCC(=O)OCCCCCCCCCCCCCCC)CC1CCCO1 (stereo not drawn) [LG15]
lipid/DNA 2.5 w/w
  Luciferase expression as a percentage of that achieved using Lipofectamine 2000: 0.7%
lipid/DNA 5 w/w
  Luciferase expression as a percentage of that achieved using Lipofectamine 2000: 0.8%
lipid/DNA 10 w/w
  Luciferase expression as a percentage of that achieved using Lipofectamine 2000: 0.5%
lipid/DNA 15 w/w
  Luciferase expression as a percentage of that achieved using Lipofectamine 2000: 0.6%
lipid/DNA 20 w/w
  Luciferase expression as a percentage of that achieved using Lipofectamine 2000: 0.7%
lipid/DNA 25 w/w
  Luciferase expression as a percentage of that achieved using Lipofectamine 2000: 0.8%

## CCCCCCCCCCCCOC(=O)CCN(CCC(=O)OCCCCCCCCCCCC)CCN1CCCC1 [LD76]
lipid/DNA 2.5 w/w
  Luciferase expression as a percentage of that achieved using Lipofectamine 2000: 0.1%
lipid/DNA 5 w/w
  Luciferase expression as a percentage of that achieved using Lipofectamine 2000: 0.1%
lipid/DNA 10 w/w
  Luciferase expression as a percentage of that achieved using Lipofectamine 2000: 0.2%
lipid/DNA 15 w/w
  Luciferase expression as a percentage of that achieved using Lipofectamine 2000: 0.3%
lipid/DNA 20 w/w
  Luciferase expression as a percentage of that achieved using Lipofectamine 2000: 0.2%
lipid/DNA 25 w/w
  Luciferase expression as a percentage of that achieved using Lipofectamine 2000: 0.4%

## CCCCCCCCCCCCCCOC(=O)CCN(CCOCC)CCC(=O)OCCCCCCCCCCCCCC [LF11]
lipid/DNA 2.5 w/w
  Luciferase expression as a percentage of that achieved using Lipofectamine 2000: 0.1%
lipid/DNA 5 w/w
  Luciferase expression as a percentage of that achieved using Lipofectamine 2000: 0.1%
lipid/DNA 10 w/w
  Luciferase expression as a percentage of that achieved using Lipofectamine 2000: 0.0%
lipid/DNA 15 w/w
  Luciferase expression as a percentage of that achieved using Lipofectamine 2000: 0.0%
lipid/DNA 20 w/w
  Luciferase expression as a percentage of that achieved using Lipofectamine 2000: 0.1%
lipid/DNA 25 w/w
  Luciferase expression as a percentage of that achieved using Lipofectamine 2000: 0.1%

## CCCCCCCCCCOC(=O)CCN(CCC(=O)OCCCCCCCCCC)CC(C)(C)CO [LB33]
lipid/DNA 2.5 w/w
  Luciferase expression as a percentage of that achieved using Lipofectamine 2000: 0.1%
lipid/DNA 5 w/w
  Luciferase expression as a percentage of that achieved using Lipofectamine 2000: 0.1%
lipid/DNA 10 w/w
  Luciferase expression as a percentage of that achieved using Lipofectamine 2000: 0.1%
lipid/DNA 15 w/w
  Luciferase expression as a percentage of that achieved using Lipofectamine 2000: 0.1%
lipid/DNA 20 w/w
  Luciferase expression as a percentage of that achieved using Lipofectamine 2000: 0.1%
lipid/DNA 25 w/w
  Luciferase expression as a percentage of that achieved using Lipofectamine 2000: 0.1%

## CCCCCCCCCCCCNC(=O)CCN(CCC(=O)NCCCCCCCCCCCC)CCN(CCO)CCO [ND86]
lipid/DNA 2.5 w/w
  Luciferase expression as a percentage of that achieved using Lipofectamine 2000: 0.5%
lipid/DNA 5 w/w
  Luciferase expression as a percentage of that achieved using Lipofectamine 2000: 0.2%
lipid/DNA 10 w/w
  Luciferase expression as a percentage of that achieved using Lipofectamine 2000: 0.0%
lipid/DNA 15 w/w
  Luciferase expression as a percentage of that achieved using Lipofectamine 2000: 0.0%
lipid/DNA 20 w/w
  Luciferase expression as a percentage of that achieved using Lipofectamine 2000: 0.0%
lipid/DNA 25 w/w
  Luciferase expression as a percentage of that achieved using Lipofectamine 2000: 0.0%

## CCCCCCCCCCOC(=O)CC[N+](C)(CCC(=O)OCCCCCCCCCC)CC1COC(C)(C)O1.[I-] (stereo not drawn) [QB7]
lipid/DNA 2.5 w/w
  Luciferase expression as a percentage of that achieved using Lipofectamine 2000: 0.0%
lipid/DNA 5 w/w
  Luciferase expression as a percentage of that achieved using Lipofectamine 2000: 0.0%
lipid/DNA 10 w/w
  Luciferase expression as a percentage of that achieved using Lipofectamine 2000: 0.0%
lipid/DNA 15 w/w
  Luciferase expression as a percentage of that achieved using Lipofectamine 2000: 0.0%
lipid/DNA 20 w/w
  Luciferase expression as a percentage of that achieved using Lipofectamine 2000: 0.0%
lipid/DNA 25 w/w
  Luciferase expression as a percentage of that achieved using Lipofectamine 2000: 0.0%

## CCCCCCCCCCCCCCOC(=O)CCN(CCC(=O)OCCCCCCCCCCCCCC)CC(OC)OC [LF13]
lipid/DNA 2.5 w/w
  Luciferase expression as a percentage of that achieved using Lipofectamine 2000: 0.1%
lipid/DNA 5 w/w
  Luciferase expression as a percentage of that achieved using Lipofectamine 2000: 0.1%
lipid/DNA 10 w/w
  Luciferase expression as a percentage of that achieved using Lipofectamine 2000: 0.0%
lipid/DNA 15 w/w
  Luciferase expression as a percentage of that achieved using Lipofectamine 2000: 0.0%
lipid/DNA 20 w/w
  Luciferase expression as a percentage of that achieved using Lipofectamine 2000: 0.1%
lipid/DNA 25 w/w
  Luciferase expression as a percentage of that achieved using Lipofectamine 2000: 0.1%

## CCCCCCCCCCCCCCOC(=O)CCN(CCC(=O)OCCCCCCCCCCCCCC)C1CCC(O)CC1 (stereo not drawn) [LF38]
lipid/DNA 2.5 w/w
  Luciferase expression as a percentage of that achieved using Lipofectamine 2000: 0.8%
lipid/DNA 5 w/w
  Luciferase expression as a percentage of that achieved using Lipofectamine 2000: 0.9%
lipid/DNA 10 w/w
  Luciferase expression as a percentage of that achieved using Lipofectamine 2000: 0.9%
lipid/DNA 15 w/w
  Luciferase expression as a percentage of that achieved using Lipofectamine 2000: 0.9%
lipid/DNA 20 w/w
  Luciferase expression as a percentage of that achieved using Lipofectamine 2000: 0.8%
lipid/DNA 25 w/w
  Luciferase expression as a percentage of that achieved using Lipofectamine 2000: 1.0%

## CCCCCCCCCCCCCOC(=O)CCN(CC)CCCN(CC)CCC(=O)OCCCCCCCCCCCCC [LE64]
lipid/DNA 2.5 w/w
  Luciferase expression as a percentage of that achieved using Lipofectamine 2000: 0.1%
lipid/DNA 5 w/w
  Luciferase expression as a percentage of that achieved using Lipofectamine 2000: 0.1%
lipid/DNA 10 w/w
  Luciferase expression as a percentage of that achieved using Lipofectamine 2000: 0.1%
lipid/DNA 15 w/w
  Luciferase expression as a percentage of that achieved using Lipofectamine 2000: 0.0%
lipid/DNA 20 w/w
  Luciferase expression as a percentage of that achieved using Lipofectamine 2000: 0.1%
lipid/DNA 25 w/w
  Luciferase expression as a percentage of that achieved using Lipofectamine 2000: 0.1%

## CCCCCCCCCCOC(=O)CCN(CCC(=O)OCCCCCCCCCC)C(CO)CO [LB25]
lipid/DNA 2.5 w/w
  Luciferase expression as a percentage of that achieved using Lipofectamine 2000: 0.8%
lipid/DNA 5 w/w
  Luciferase expression as a percentage of that achieved using Lipofectamine 2000: 2.4%
lipid/DNA 10 w/w
  Luciferase expression as a percentage of that achieved using Lipofectamine 2000: 2.6%
lipid/DNA 15 w/w
  Luciferase expression as a percentage of that achieved using Lipofectamine 2000: 3.3%
lipid/DNA 20 w/w
  Luciferase expression as a percentage of that achieved using Lipofectamine 2000: 2.3%
lipid/DNA 25 w/w
  Luciferase expression as a percentage of that achieved using Lipofectamine 2000: 1.8%

## CCCCCCCCCCCCOC(=O)CCN(CCC(=O)OCCCCCCCCCCCC)C(C)CN(C)C (stereo not drawn) [LD79]
lipid/DNA 2.5 w/w
  Luciferase expression as a percentage of that achieved using Lipofectamine 2000: 0.1%
lipid/DNA 5 w/w
  Luciferase expression as a percentage of that achieved using Lipofectamine 2000: 0.1%
lipid/DNA 10 w/w
  Luciferase expression as a percentage of that achieved using Lipofectamine 2000: 0.1%
lipid/DNA 15 w/w
  Luciferase expression as a percentage of that achieved using Lipofectamine 2000: 0.2%
lipid/DNA 20 w/w
  Luciferase expression as a percentage of that achieved using Lipofectamine 2000: 0.3%
lipid/DNA 25 w/w
  Luciferase expression as a percentage of that achieved using Lipofectamine 2000: 0.2%
